Drawing on the supplement of paper PMC10307832, this text covers relative viability for six cell lines.

Common to all, as to test: relative viability (nuclei count vs DMSO), 5 days (fraction); higher = more cells survive
Compound in assay [1]: NCC(=O)Nc1ccc(-n2nc(C(F)(F)F)cc2-c2ccc3c(ccc4ccccc43)c2)cc1 + O=C(c1cc(Cc2n[nH]c(=O)c3ccccc23)ccc1F)N1CCN(C(=O)C2CC2)CC1 [Olaparib] (partner 8 µM)
A digest of the protocol: (§1)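 Nuclei were stained with Hoechst during a one-step fixation (final 0.05% Triton X-100, 1% formaldehyde, 1 ug/ml Hoechst) carried out 5 days after dosing, then counted on 4× images. The cells, lung cancer lines in 1536-well plates, had been dosed by pin tool the day after seeding with one drug alone or a fixed anchor-drug dose plus five library-drug doses (not always all listed) in √10 steps. Relative viability is the nuclei count in treated wells divided by that in vehicle wells, and each value is the median of duplicate plates.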

Compound in assay [2]: NCC(=O)Nc1ccc(-n2nc(C(F)(F)F)cc2-c2ccc3c(ccc4ccccc43)c2)cc1 + C[C@@H](Oc1cc(-c2cnn(C3CCNCC3)c2)cnc1N)c1c(Cl)ccc(F)c1Cl [Crizotinib] (partner 1 µM)
The gist of the method: as §1

Compound in the assay “kb NB 142-70 + Dasatinib”: C1CSC2=C(C(=O)N1)SC3=C2C=C(C=C3)O [kb NB 142-70] + Cc1nc(Nc2ncc(C(=O)Nc3c(C)cccc3Cl)s2)cc(N2CCN(CCO)CC2)n1 [Dasatinib] (partner 0.075 µM)
The gist of the method:
as §1

Compound in assay [3]: C1CSC2=C(C(=O)N1)SC3=C2C=C(C=C3)O [kb NB 142-70] + CC(=O)Nc1cccc(-n2c(=O)n(C3CC3)c(=O)c3c(Nc4ccc(I)cc4F)n(C)c(=O)c(C)c32)c1 [Trametinib] (partner 0.02 µM)
The gist of the method: as §1

Compound in the assay “kb NB 142-70 + Lapatinib”: C1CSC2=C(C(=O)N1)SC3=C2C=C(C=C3)O [kb NB 142-70] + CS(=O)(=O)CCNCc1ccc(-c2ccc3ncnc(Nc4ccc(OCc5cccc(F)c5)c(Cl)c4)c3c2)o1 [Lapatinib] (partner 2 µM)
A digest of the protocol:
as §1

Turning to NCI-H2126, the relative viability stood at 0.864 in assay [1] (first compound 0.02 µM); 0.877 in assay [1] (first compound 0.06325 µM); 0.925 in assay [1] (first compound 0.2 µM); 0.928 in assay [1] (first compound 0.6325 µM); 0.913 in assay [1] (first compound 2 µM); 1 in assay [2] (first compound 0.02 µM). Moreover, the relative viability in assay [2] (first compound 0.06325 µM) was 1; in assay [2] (first compound 0.2 µM), 1.05; in assay [2] (first compound 0.6325 µM) it was 1.01; in assay [2] (first compound 2 µM), 1.04; with kb NB 142-70 + Dasatinib (first compound 0.1 µM) it was 0.622; in the assay with kb NB 142-70 + Dasatinib (first compound 1 µM), 0.558. The relative viability with kb NB 142-70 + Dasatinib (first compound 3.162 µM) was 0.537; in assay [3] (first compound 0.1 µM), 0.593; in assay [3] (first compound 1 µM) it was 0.534; in assay [3] (first compound 3.162 µM) it was 0.473; with kb NB 142-70 + Lapatinib (first compound 0.1 µM) it was 0.818; with kb NB 142-70 + Lapatinib (first compound 1 µM), 0.739. Also, in the assay with kb NB 142-70 + Lapatinib (first compound 3.162 µM), the relative viability came out at 0.783.

Regarding NCI-H2170, the relative viability in assay [1] (first compound 0.02 µM) stood at 0.689; in assay [1] (first compound 0.06325 µM) it was 0.638; in assay [1] (first compound 0.2 µM), 0.62; in assay [1] (first compound 0.6325 µM), 0.673; in assay [1] (first compound 2 µM) it was 0.605; in assay [2] (first compound 0.02 µM), 1.24. Besides, the relative viability in assay [2] (first compound 0.06325 µM) worked out at 1.22; in assay [2] (first compound 0.2 µM) it was 1.1; in assay [2] (first compound 0.6325 µM), 1.22; in assay [2] (first compound 2 µM), 1.22; in the assay with kb NB 142-70 + Dasatinib (first compound 0.1 µM), 0.498; with kb NB 142-70 + Dasatinib (first compound 1 µM) it was 0.475. Also, the relative viability was determined as 0.4 in the assay with kb NB 142-70 + Dasatinib (first compound 3.162 µM); 0.878 in assay [3] (first compound 0.1 µM); 0.958 in assay [3] (first compound 1 µM); 0.888 in assay [3] (first compound 3.162 µM); 0.295 in the assay with kb NB 142-70 + Lapatinib (first compound 0.1 µM); 0.305 with kb NB 142-70 + Lapatinib (first compound 1 µM). Moreover, the relative viability with kb NB 142-70 + Lapatinib (first compound 3.162 µM) was 0.258.

As to NCI-H2228, the relative viability in assay [1] (first compound 0.02 µM) came out at 0.354; in assay [1] (first compound 0.06325 µM), 0.641; in assay [1] (first compound 0.2 µM) it was 0.827; in assay [1] (first compound 0.6325 µM) it was 0.52; in assay [1] (first compound 2 µM), 0.633; in assay [2] (first compound 0.02 µM), 0.56. In addition, the relative viability in assay [2] (first compound 0.06325 µM) was determined as 0.652; in assay [2] (first compound 0.2 µM), 0.603; in assay [2] (first compound 0.6325 µM), 0.544; in assay [2] (first compound 2 µM), 0.493; in the assay with kb NB 142-70 + Dasatinib (first compound 0.1 µM), 0.568; with kb NB 142-70 + Dasatinib (first compound 1 µM), 0.542. The relative viability with kb NB 142-70 + Dasatinib (first compound 3.162 µM) was found to be 0.405; in assay [3] (first compound 0.1 µM) it was 0.696; in assay [3] (first compound 1 µM), 0.497; in assay [3] (first compound 3.162 µM), 0.235; with kb NB 142-70 + Lapatinib (first compound 0.1 µM) it was 1.07; in the assay with kb NB 142-70 + Lapatinib (first compound 1 µM), 1.02. Further, the relative viability in the assay with kb NB 142-70 + Lapatinib (first compound 3.162 µM) is 0.323.

Turning to NCI-H2347, the relative viability came to 0.572 in assay [1] (first compound 0.02 µM); 0.611 in assay [1] (first compound 0.06325 µM); 0.648 in assay [1] (first compound 0.2 µM); 0.63 in assay [1] (first compound 0.6325 µM); 0.521 in assay [1] (first compound 2 µM); 0.755 in assay [2] (first compound 0.02 µM). The relative viability in assay [2] (first compound 0.06325 µM) turned out to be 0.768; in assay [2] (first compound 0.2 µM), 0.822; in assay [2] (first compound 0.6325 µM) it was 0.813; in assay [2] (first compound 2 µM), 0.688; with kb NB 142-70 + Dasatinib (first compound 0.1 µM), 0.311; in the assay with kb NB 142-70 + Dasatinib (first compound 1 µM), 0.349. Besides, the relative viability in the assay with kb NB 142-70 + Dasatinib (first compound 3.162 µM) amounted to 0.279; in assay [3] (first compound 0.1 µM) it was 0.259; in assay [3] (first compound 1 µM), 0.267; in assay [3] (first compound 3.162 µM), 0.233; with kb NB 142-70 + Lapatinib (first compound 0.1 µM), 1.02; in the assay with kb NB 142-70 + Lapatinib (first compound 1 µM), 1.07. For the same cell line, the relative viability with kb NB 142-70 + Lapatinib (first compound 3.162 µM) came to 0.936.

With NCI-H2405, the relative viability in assay [1] (first compound 0.02 µM) was 0.873; in assay [1] (first compound 0.06325 µM), 0.89; in assay [1] (first compound 0.2 µM), 0.863; in assay [1] (first compound 0.6325 µM) it was 0.857; in assay [1] (first compound 2 µM) it was 0.919; in assay [2] (first compound 0.02 µM), 0.916. For the same cell line, the relative viability in assay [2] (first compound 0.06325 µM) turned out to be 0.927; in assay [2] (first compound 0.2 µM), 0.914; in assay [2] (first compound 0.6325 µM), 0.847; in assay [2] (first compound 2 µM), 0.881; in the assay with kb NB 142-70 + Dasatinib (first compound 0.1 µM), 0.205; with kb NB 142-70 + Dasatinib (first compound 1 µM) it was 0.208. For the same cell line, the relative viability with kb NB 142-70 + Dasatinib (first compound 3.162 µM) amounted to 0.224; in assay [3] (first compound 0.1 µM), 0.604; in assay [3] (first compound 1 µM), 0.596; in assay [3] (first compound 3.162 µM) it was 0.643; with kb NB 142-70 + Lapatinib (first compound 0.1 µM) it was 1.11; with kb NB 142-70 + Lapatinib (first compound 1 µM) it was 1.07. In the assay with kb NB 142-70 + Lapatinib (first compound 3.162 µM), the relative viability was 0.896.

Consider NCI-H3122, for which the relative viability in assay [1] (first compound 0.02 µM) stood at 0.675; in assay [1] (first compound 0.06325 µM) it was 0.637; in assay [1] (first compound 0.2 µM), 0.633; in assay [1] (first compound 0.6325 µM), 0.693; in assay [1] (first compound 2 µM), 0.558; in assay [2] (first compound 0.02 µM) it was 0.275. Moreover, the relative viability in assay [2] (first compound 0.06325 µM) was found to be 0.287; in assay [2] (first compound 0.2 µM) it was 0.266; in assay [2] (first compound 0.6325 µM), 0.289; in assay [2] (first compound 2 µM) it was 0.279; with kb NB 142-70 + Dasatinib (first compound 0.1 µM), 0.803; in the assay with kb NB 142-70 + Dasatinib (first compound 1 µM), 0.794. Besides, the relative viability with kb NB 142-70 + Dasatinib (first compound 3.162 µM) is 0.84; in assay [3] (first compound 0.1 µM), 0.229; in assay [3] (first compound 1 µM) it was 0.225; in assay [3] (first compound 3.162 µM), 0.274; with kb NB 142-70 + Lapatinib (first compound 0.1 µM) it was 0.872; in the assay with kb NB 142-70 + Lapatinib (first compound 1 µM), 1.01. In the assay with kb NB 142-70 + Lapatinib (first compound 3.162 µM), the relative viability worked out at 0.947.
